Results taken from patent US6440710B1, “Antibody-catalyzed deuteration, tritiation, dedeuteration or detritiation of carbonyl compounds” (The Scripps Research Institute, priority 1998, dated 2002).

System: antibody 38C2
Experiment: antibody 38C2-catalyzed deuterium exchange (deuteration) of ketones and aldehydes in D2O, kinetics by GCMS or 1H-NMR
Assay type: biochemical
Conditions: for kcat / Km: 38C2-catalyzed deuteration, D2O, pD 7.4, 25° C.; for kcat: per exchange of one hydrogen atom; for Km: Lineweaver-Burk analysis (GCMS); for kcat/kun: rate enhancement over uncatalyzed background reaction (followed 5 months at 25° C.)
Protocol: Series of reactions were carried out in a 0.1 ml solution containing the appropriate concentration of the carbonyl substrate and antibody 38C2(1.33 μM in the case of cycloheptanone and heptanal, 2.67 μM in the case of 2-heptanone) which was previously dialyzed three times against 0.1 M NaCl in D2O. The reaction mixtures were kept at 25° C. for 10 minutes and then quenched with dichloromethane. The organic layer was separated and analyzed by GCMS (Chemical Ionization) where the different isotopic masses were monitored and integrated. All kinetic parameters are calculated per exchange of one deuterium atom. No background reactions could be detected under these conditions.
The issue of kinetic analyses of these catalytic reactions and structure determination of the deuterium labeled products is not trivial. The common chromatographic methods, such as HPLC, used to monitor protein-catalyzed organic reactions that are carried out at very low concentrations, are not applicable to isotope exchange reactions. Work at low concentrations, at the range of the antibody's Km, is required in order to establish the kinetic parameters of the antibody catalyzed reaction. Consequently, alternative methods such as mass spectrometry and NMR are required. For NMR spectroscopy, deuterated substrates were used and the exchange of ^2H and ^1H was followed by ^1H-NMR. This allows for monitoring the reaction in real time in the presence of antibody and buffer solution. The experiments were carried out in relatively high substrate concentrations, due to the limited sensitivity of the instrument. Most experiments employed deuterated acetonitrile as an internal standard that enables one to quantify the results. It will be appreciated that the employment of NMR techniques is valuable not only for kinetic studies but also for determining the product's stereochemistry as well as the regio, chemo- and enantioselectivity of the reaction.
All reactions were carried out in D2O under neutral conditions (pD 7.4) in the presence of catalytic amounts of the commercially available 38C2 antibody.
The exchange reaction was followed either by mass spectrometry (GCMS.) or by ^1H-NMR. The high sensitivity of the GCMS method with respect to substrate concentration allowed for determination of the kinetic parameters of these reactions (Km and kcat) using Lineweaver-Burk analysis. These measurements are presented in Table 1 hereinunder and FIG. 5.
Although all NMR measurements were carried out under substrate saturation conditions (allowing only for determination of Vmax and kcat, Table 1, above), as further detailed hereinunder, this method provided useful information about the regioselectivity of the reaction in the cases of non-symmetrical ketones and chemoselectivity with polyfunctional carbonyl compounds.
14. The rate of the uncatalyzed reaction was determined by averaging the results of five experiments for each substrate. All reaction mixtures, containing the appropriate substrate (200 μM) and NaCl (0.1 M) in D2O (0.1 mL), were monitored by GCMS-CI. Approximately 1-2% yield was observed after 5 months at 25° C.

## CC(C)=O [Acetone, 1, Acetone]
  kcat: 0.0433 s⁻¹

## O=C1CCCCCC1 [Cycloheptanone, 10, Cycloheptanone]
  Km: 4.6 mM
  kcat: 0.232 s⁻¹
  kcat/kun: 1.1 × 10^8

## CCCCCCCCCC=O [Decanal, 6, Decanal]
  Km: 0.68 mM
  kcat: 0.0667 s⁻¹

## CCCCC=O [Valeraldehyde, 4, Valeraldehyde]
  kcat: 0.0567 s⁻¹

## O=C1CCCC1 [Cyclopentanone, 8, Cyclopentanone]
  kcat: 0.102 s⁻¹

## CC(=O)CC(C)=O [acetylacetone, reference compound]
All cases studied by GCMS
  inhibition of the 38C2-catalyzed deuterium exchange reaction: effectively inhibited

## O=C1CCCCC1 [Cyclohexanone, 9, Cyclohexanone]
  Km: 5.2 mM
  kcat: 3.233 s⁻¹
  kcat/kun: 5.9 × 10^8

## CCC(C)=O [Butanone, 2, Butanone]
  kcat: 0.0517 s⁻¹

## CCCCCCC=O [Heptanal, 5, Heptanal]
  Km: 3.5 mM
  kcat: 0.753 s⁻¹

## CC(=O)C(C)(C)C [3,3-dimethylbutan-2-one]
Data not shown
  reactivity in the 38C2-catalyzed deuterium exchange reaction: absolute inertness

## CCCCCC(C)=O [2-Heptanone, 3, 2-Heptanone]
  Km: 16 mM
  kcat: 0.0583 s⁻¹
  kcat/kun: 6.94 × 10^7

## CCOC(=O)CCCC(C)=O [Ethyl 5-oxohexanoate, 7, Ethyl 5-oxohexanoate]
  kcat: 0.013 s⁻¹
